Assay results published in ChEMBL document CHEMBL2163198, “Substituent effects on desferrithiocin and desferrithiocin analogue iron-clearing and toxicity profiles” (J Med Chem, 2012).

Legend:
Rattus norvegicus [1] = assay: Iron excretion in noniron-overloaded bile duct cannulated Sprague-Dawley rat bile at 300 umol/kg, po after 48 hrs relative to control; format: functional
Rattus norvegicus [2] = assay: Iron clearing effect in noniron-overloaded bile duct cannulated Sprague-Dawley rat at 300 umol/kg, po after 48 hrs; format: functional
Rattus norvegicus [3] = assay: Iron excretion in noniron-overloaded bile duct cannulated Sprague-Dawley rat urine at 300 umol/kg, po after 48 hrs relative to control; format: functional
Sapajus apella [4] = assay: Iron clearing effect in iron-overloaded Cebus apella at 75 umol/kg, po after 48 hrs by flame absorption spectroscopy analysis; format: functional
Rattus norvegicus [5] = assay: Iron clearing effect in noniron-overloaded bile duct cannulated Sprague-Dawley rat assessed as maximum iron clearance time at 300 umol/kg, po; format: functional
Rattus norvegicus [6] = format: toxicity, organism-based; conditions: in vivo, po, 168 h
Sapajus apella [7] = assay: Iron excretion in iron-overloaded Cebus apella urine at 75 umol/kg, po after 48 hrs by flame absorption spectroscopy analysis relative to control; format: functional
[8] = Octanol-water apparent partition coefficient, log D of the compound at pH 7.4; format: physicochemical; conditions: for logD: read-out: LogD7.4
Sapajus apella [9] = assay: Iron excretion in iron-overloaded Cebus apella feces at 75 umol/kg, po after 48 hrs by flame absorption spectroscopy analysis relative to control; format: functional
Rattus norvegicus [10] = assay: Toxicity in rat assessed as mortality at 384 umol/kg, po qd for 10 days; format: organism-based; conditions: in vivo, 240 h
Sapajus apella [11] = assay: Iron excretion in iron-overloaded Cebus apella feces at 75 umol/kg, sc after 48 hrs by flame absorption spectroscopy analysis relative to control; format: functional
Sapajus apella [12] = assay: Iron excretion in iron-overloaded Cebus apella urine at 75 umol/kg, sc after 48 hrs by flame absorption spectroscopy analysis relative to control; format: functional
Rattus norvegicus [13] = assay: Iron clearing effect in noniron-overloaded bile duct cannulated Sprague-Dawley rat assessed as maximum iron clearance time at 150 umol/kg, po; format: functional
Rattus norvegicus [14] = assay: Iron excretion in noniron-overloaded bile duct cannulated Sprague-Dawley rat urine at 150 umol/kg, po after 24 hrs relative to control; format: functional
Rattus norvegicus [15] = assay: Iron clearing effect in noniron-overloaded bile duct cannulated Sprague-Dawley rat at 150 umol/kg, po after 24 hrs; format: functional
Rattus norvegicus [16] = assay: Iron excretion in noniron-overloaded bile duct cannulated Sprague-Dawley rat bile at 150 umol/kg, po after 24 hrs relative to control; format: functional
Sapajus apella [17] = assay: Iron clearing effect in iron-overloaded Cebus apella at 150 umol/kg, po after 48 hrs by flame absorption spectroscopy analysis; format: functional
Sapajus apella [18] = assay: Iron excretion in iron-overloaded Cebus apella urine at 150 umol/kg, po after 48 hrs by flame absorption spectroscopy analysis relative to control; format: functional
Rattus norvegicus [19] = format: toxicity, organism-based, Urine; conditions: in vivo, po, 168 h
Sapajus apella [20] = assay: Iron excretion in iron-overloaded Cebus apella feces at 150 umol/kg, po after 48 hrs by flame absorption spectroscopy analysis relative to control; format: functional
Rattus norvegicus [21] = format: toxicity, organism-based, Serum; conditions: in vivo, po, 168 h
Rattus norvegicus [22] = format: toxicity, organism-based, Blood; conditions: in vivo, po, 168 h
Rattus norvegicus [23] = format: toxicity, organism-based, Urine; conditions: in vivo, po, 168 h; remark: listed apart in the source

Structure (SMILES) | Activity (Sapajus apella [4]) | Time (Rattus norvegicus [5]) | Activity (Rattus norvegicus [6]) | Activity (Sapajus apella [7]) | Activity (Sapajus apella [9]) | logD [8] | further results
COCCOCCOc1ccc(C2=N[C@@](C)(C(=O)[O-])CS2)c(O)c1.[Na+] | 28.7% | 12 h | Non-toxic | 17% | 83% |  | Activity (Rattus norvegicus [1]): 97%; Activity (Rattus norvegicus [2]): 26.7%; Activity (Rattus norvegicus [3]): 3%; LogD7.4 [8]: -0.89; Activity (Rattus norvegicus [10]): Non-toxic
COCCOCCOc1ccnc(C2=N[C@@](C)(C(=O)[O-])CS2)c1O.[Na+] |  | 6 h | Non-toxic | 60% | 40% | -1.38 | Activity (Sapajus apella [11]): 64%; Activity (Sapajus apella [12]): 36%
COCCOCCOc1cnc(C2=N[C@@](C)(C(=O)[O-])CS2)c(O)c1.[Na+] |  | 6 h | Non-toxic | 37% | 63% | -1.59 | 
COCCOCCOc1cccc(C2=N[C@@](C)(C(=O)[O-])CS2)c1O.[Na+] | 22.5% | 6 h |  | 14% | 86% | -0.96 | Activity (Rattus norvegicus [1]): 99%; Activity (Rattus norvegicus [2]): 15.1%; Activity (Rattus norvegicus [3]): 1%
C[C@]1(C(=O)[O-])CSC(c2ncc(O)cc2O)=N1.[Na+] | 10% | 6 h | Non-toxic | 42% | 58% | -1.68 | 
C[C@]1(C(=O)[O-])CSC(c2ccccc2O)=N1.[Na+] | 21.5% |  |  | 24% | 76% |  | Time (Rattus norvegicus [13]): 6 h; Activity (Rattus norvegicus [14]): 0%; Activity (Rattus norvegicus [15]): 2.7%; Activity (Rattus norvegicus [16]): 100%
C[C@]1(C(=O)[O-])CSC(c2ccc(O)cc2O)=N1.[Na+] [DEFERITRIN SODIUM] |  | 3 h | Non-toxic |  |  |  | Activity (Sapajus apella [17]): 16.8%; Activity (Sapajus apella [18]): 12%; Activity (Rattus norvegicus [19]): 69 ng/kg/day; Activity (Sapajus apella [20]): 88%
C[C@]1(C(=O)[O-])CSC(c2ncccc2O)=N1.[Na+] [DESFERRITHIOCIN SODIUM] |  |  | Toxic |  |  |  | Activity (Sapajus apella [17]): 16.1%; Time (Rattus norvegicus [13]): 3 h; Activity (Sapajus apella [18]): 22%; Activity (Rattus norvegicus [21]): 5.1 mg/dL; Activity (Rattus norvegicus [19]): 1528 ng/kg/day; Activity (Rattus norvegicus [14]): 7%; Activity (Sapajus apella [20]): 78%; Activity (Rattus norvegicus [15]): 5.5%; Activity (Rattus norvegicus [22]): 139 mg/dL; Activity (Rattus norvegicus [23]): 192 ng/kg/day; Activity (Rattus norvegicus [16]): 93%
